Read-outs that look alike come from different tables or passages of the source.
Tests used:
VDCC = VDCC blockade: intracellular Ca2+ (Fluo-4) in SH-SY5Y cells on depolarization with 60 mM KCl; format: cell-based, human
Protocol: SH-SY5Y cells were plated at 5×10^5 cells per well into Black/Clear Bottom 96-well culture plate, 48 hours before treatment. Cells were loaded with Fluo-4, 5 μM and pluronic acid, 0.1%, for 30 min at 37° C., 5% CO2, following a incubation of 15 min at RT in Krebs-HEPES solution. Immediately cells are exposed to the samples at different concentrations for 10 min. […] After the treatment, the fluorescence is measured in a Fluostar Optima plate reader (BMG) in response to depolarization with 60 mM KCl. The excitation wavelength was 485 nm, and that of emission 520 nm. […] Three compounds isolated from this extract have shown calcium channel blocking properties in SH-SY5Y neuroblastoma cells.

[1] = tested on: human neuroblastoma cell line SH-SY5Y; format: cell-based; conditions: for Toxicity (in words): at 10 μM
Protocol: The cytotoxicity effect of the molecules was tested in the human neuroblastoma cell line SH-SY5Y. These cells were cultured in 96-well plates in minimum essential medium, Ham's F12 medium, supplemented with 10% fetal bovine serum, 1% glutamine and 1% penicillin/streptomycin, and grown in a 5% CO2 humidified incubator at 37° C. Cells were plated at 10^4 cells for each well, at least, 48 hours before treatment. Cells were exposed for 24 hours to the compounds at different concentrations (from 10^−5 to 10^−9), quantitative assessment of cell death was made by measurement of the intracellular enzyme lactate dehydrogenase (LDH) (citotoxicity detection kit, Roche). The quantity of LDH was measured was evaluated in a microplate reader Anthos 2010, at 492 and 620 nm. Controls were taken as 100% viability.

[2] = target: T1, AChE (from bovine erythrocytes) (Bos taurus, UniProt P23795); experiment: AChE inhibition (Ellman colorimetric method); format: biochemical; conditions: read-out: % inhibition AChE (concentration); for inhibition at 30 µM: 3 × 10^−5 M
T1 construct: AChE (Sigma Chemical Co. from bovine erythrocytes); purchased Sigma Chemical Co; host or cells: bovine erythrocytes
T1 sequence (P23795 31-614 isoform P23795-2 limits assumed): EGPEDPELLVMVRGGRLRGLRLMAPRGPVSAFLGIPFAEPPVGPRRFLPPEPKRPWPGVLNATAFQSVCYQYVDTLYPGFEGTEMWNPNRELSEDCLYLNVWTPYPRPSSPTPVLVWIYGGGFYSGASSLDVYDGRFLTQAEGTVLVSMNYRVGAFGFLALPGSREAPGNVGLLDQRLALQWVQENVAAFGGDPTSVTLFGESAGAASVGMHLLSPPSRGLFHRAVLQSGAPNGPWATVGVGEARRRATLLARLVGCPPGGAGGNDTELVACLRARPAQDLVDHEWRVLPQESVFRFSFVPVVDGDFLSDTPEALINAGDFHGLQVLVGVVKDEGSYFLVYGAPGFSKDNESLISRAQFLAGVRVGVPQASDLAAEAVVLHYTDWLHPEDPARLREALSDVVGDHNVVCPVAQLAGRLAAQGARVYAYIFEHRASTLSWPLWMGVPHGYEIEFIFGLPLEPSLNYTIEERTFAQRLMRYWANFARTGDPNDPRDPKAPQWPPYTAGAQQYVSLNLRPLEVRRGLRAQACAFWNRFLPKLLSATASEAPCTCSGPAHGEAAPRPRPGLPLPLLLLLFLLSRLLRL
Protocol: AChE inhibitory activity was evaluated at 30° C. by the colorimetric method reported by Ellman (Ellman, G. L. et al., 1961, Biochem Pharmacol, 7, 88-95). The assay solution consisted of 0.1 M phosphate buffer pH 8, 0.3 mM 5,5′-dithiobis (2-nitrobenzoic acid) (DTNB, Ellman's reagent), 0.02 units AChE (Sigma Chemical Co. from bovine erythrocytes), and 0.5 mM acetylthiocholine iodide as the substrate of the enzymatic reaction. The compounds tested were added to the assay solution and pre incubated with the enzyme for 5 min at 30° C. After that period, the substrate was added. The absorbance changes at 405 nm were recorded for 5 min with a microplate reader Digiscan 340T, the reaction rates were compared, and the percent inhibition due to the presence of test compounds was calculated. The reaction rate was calculated with, at least, triplicate measurements, and the percent inhibition due to the presence of test compound was calculated relative to the compound-free control.

BuChE from human serum = target: T2, BuChE from human serum (Homo sapiens, UniProt P06276); experiment: BuChE inhibition (Ellman colorimetric method); format: biochemical
T2 construct: 0.01 units BuChE from human serum; from tissue; host or cells: human serum
T2 sequence (P06276 29-602): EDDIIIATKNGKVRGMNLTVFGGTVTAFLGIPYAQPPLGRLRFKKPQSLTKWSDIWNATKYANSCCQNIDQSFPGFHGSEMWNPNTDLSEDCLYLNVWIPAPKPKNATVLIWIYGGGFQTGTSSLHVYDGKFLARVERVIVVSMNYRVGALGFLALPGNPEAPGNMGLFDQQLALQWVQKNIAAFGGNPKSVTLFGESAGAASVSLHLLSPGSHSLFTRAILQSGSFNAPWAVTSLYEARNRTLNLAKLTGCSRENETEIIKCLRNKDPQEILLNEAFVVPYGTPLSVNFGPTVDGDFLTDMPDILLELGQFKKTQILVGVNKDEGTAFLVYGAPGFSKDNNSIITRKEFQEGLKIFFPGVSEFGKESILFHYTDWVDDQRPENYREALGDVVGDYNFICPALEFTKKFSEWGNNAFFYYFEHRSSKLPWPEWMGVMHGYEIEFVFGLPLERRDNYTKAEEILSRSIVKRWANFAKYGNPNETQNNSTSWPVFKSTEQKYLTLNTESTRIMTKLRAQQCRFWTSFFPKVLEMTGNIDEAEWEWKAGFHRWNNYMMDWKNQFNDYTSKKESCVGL
Protocol: BuChE inhibitory activity was evaluated at 30° C. by the colorimetric method reported by Ellman (Ellman, G. L. et al., 1961, Biochem Pharmacol, 7, 88-95). The assay solution consisted of 0.01 units BuChE from human serum, 0.1 M sodium phosphate buffer pH 8, 0.3 mM 5,5′-dithiobis (2-nitrobenzoic acid) (DTNB, Ellman's reagent), and 0.5 mM butyrylthiocholine iodide as the substrate of the enzymatic reaction. Enzyme activity was determined by measuring the absorbance at 405 nm during 5 minutes with a microplate reader Digiscan 340T. The tested compounds were preincubated with the enzyme for 10 minutes at 30° C. The reaction rate was calculated with, at least, triplicate measurements.

AChE peripheral site = target: T3, AChE peripheral site (Bos taurus, UniProt P23795); experiment: Propidium competition (fluorescence); format: binding; conditions: 30 μM compound; 5 μM AChE, 20 μM propidium iodide
T3 sequence (P23795 31-613): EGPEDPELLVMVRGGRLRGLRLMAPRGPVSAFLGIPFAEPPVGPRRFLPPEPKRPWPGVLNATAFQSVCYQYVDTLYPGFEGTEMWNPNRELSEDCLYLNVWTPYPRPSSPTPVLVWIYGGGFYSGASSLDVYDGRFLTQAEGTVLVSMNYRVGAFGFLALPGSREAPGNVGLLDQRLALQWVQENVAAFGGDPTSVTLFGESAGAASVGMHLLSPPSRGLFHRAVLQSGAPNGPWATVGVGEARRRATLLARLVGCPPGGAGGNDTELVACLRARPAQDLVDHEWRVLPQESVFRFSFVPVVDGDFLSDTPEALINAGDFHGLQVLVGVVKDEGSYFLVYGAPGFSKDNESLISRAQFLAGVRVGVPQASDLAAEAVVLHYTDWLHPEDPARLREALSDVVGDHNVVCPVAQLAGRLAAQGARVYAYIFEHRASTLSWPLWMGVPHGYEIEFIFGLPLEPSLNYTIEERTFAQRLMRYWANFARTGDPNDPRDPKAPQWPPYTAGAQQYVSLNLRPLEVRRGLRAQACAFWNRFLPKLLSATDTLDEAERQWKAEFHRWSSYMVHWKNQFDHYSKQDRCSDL
Protocol: Fluorescence was measured in a Fluostar Optima plate reader (BMG). Measurements were carried out in 100 μl solution volume, in 96-well plates. The buffer used was 1 mM Tris/HCl, pH 8.0. 5 μM AChE was incubated, at least 6 hours, with the molecule at different concentrations. 20 μM propidium iodide was added 10 min before fluorescence measurement. The excitation wavelength was 485 mn and that of emission 620 nm.

[3] = SH-SY5Y, 24 hours exposure, LDH

| SMILES | Toxicity [1, 3] [µM] | inhibition at 30 µM [2] [%] | inhibition at 30 µM (BuChE from human serum) [%] | % inhibition VDCC (concentration) (VDCC; 1.8 × 10^−5 M) [%] | % inhibition VDCC (concentration) (VDCC; 10^−5 M) [%] | Toxicity (in words) [1, 3] | other results |
| --- | --- | --- | --- | --- | --- | --- | --- |
| COC1=C(Br)[C@@H]2OC(=O)C[C@]2(O)C=C1Br [Compound 1, Aeroplysinin-2] | 0.6 | 7 ± 1 | 0 |  |  |  | % inhibition VDCC (concentration) (VDCC; concentration not given): 0% |
| COC1=C(Br)[C@H](O)[C@](O)(CC#N)C=C1Br [Compound 2, Aeroplysinin-1] | 6 | 19 ± 3 | 0 |  |  |  | % inhibition VDCC (concentration) (VDCC; concentration not given): 0% |
| COC1=C(Br)[C@H](O)[C@@]2(C=C1Br)CC(C(=O)NCCCCNC(=O)C1=NO[C@]3(C=C(Br)C(OC)=C(Br)[C@@H]3O)C1)=NO2 [Compound 3, Aerothionin] |  | 12 ± 1 | 13 ± 1 | 75 ± 17 |  |  | Toxicity ([1]; human, 24 h): 18 µM |
| COC1=C(Br)[C@H](O)[C@@]2(C=C1Br)CC(C(=O)NCCCCCNC(=O)C1=NO[C@]3(C=C(Br)C(OC)=C(Br)[C@@H]3O)C1)=NO2 [Compound 4, Homoaerothionin] | 6 | 9 ± 4 | 10 ± 1 | 95 ± 4 |  |  | Propidium competition (30 μM) (AChE peripheral site): YES |
| COC1=C(Br)[C@@H](O)[C@]2(C=C1Br)CC(C(=O)NCCc1cc(Br)c(OCCCNC(=O)C3=NO[C@]4(C=C(Br)C(OC)=C(Br)[C@@H]4O)C3)c(Br)c1)=NO2 [Compound 5, 11,19-dideoxyfistularin] | >100 | 63 ± 3 | 57 ± 7 | 34 ± 14 |  |  | Propidium competition (30 μM) (AChE peripheral site): YES |
| COC1=C(Br)[C@@H](O)[C@]2(C=C1Br)CC(C(=O)NCCc1cnc[nH]1)=NO2 [Compound 6] |  |  |  |  | 18 ± 10 | Not toxic | inhibition at 100 µM ([2]; 10^−4 M): 0% |
| COC1=C(Br)[C@@H](O)[C@]2(C=C1Br)CC(C(=O)NCCCOc1c(Br)cc(CCN)cc1Br)=NO2 [Compound 7] |  |  |  |  | 67 ± 14.5 | Not toxic | inhibition at 100 µM ([2]; 10^−4 M): 9.5 ± 3%; inhibition at 10 µM ([2]; 10^−5 M): 5 ± 3% |
| COC1=C(Br)[C@@H](O)[C@]2(C=C1Br)CC(C(=O)NCCCOc1c(Br)cc(C/C(=N\O)C(=O)NCCc3cnc[nH]3)cc1Br)=NO2 [Compound 8] |  |  |  |  | 96 ± 3 | Not toxic | % inhibition VDCC (concentration) (VDCC; 10^−6 M): 48%; % inhibition VDCC (concentration) (VDCC; 10^−7 M): 9%; inhibition at 100 µM [2]: 0% |
